Like-named read-outs stand apart in the source and are kept apart here. Square brackets hold non-standard residues; d marks the D form. Peptide text beside a SMILES is read from it. Nle = CCCC[C@H](N)C(=O)O; βAla = NCCC(=O)O
Assays:
rat NMB receptor = target: T1, rat NMB receptor (Rattus norvegicus, UniProt P24053); assay: NMB Receptor Binding Assay (membranes of BALB-3T3 fibroblasts transfected with the rat NMB receptor); settings: for IC50: affinity for the NMB receptor, BALB-3T3 fibroblasts transfected with the rat NMB receptor, 30 min, 4°C
T1 construct: expressed in transfected cells; host or cells: BALB-3T3 (mouse) fibroblasts
T1 sequence (P24053 1-390): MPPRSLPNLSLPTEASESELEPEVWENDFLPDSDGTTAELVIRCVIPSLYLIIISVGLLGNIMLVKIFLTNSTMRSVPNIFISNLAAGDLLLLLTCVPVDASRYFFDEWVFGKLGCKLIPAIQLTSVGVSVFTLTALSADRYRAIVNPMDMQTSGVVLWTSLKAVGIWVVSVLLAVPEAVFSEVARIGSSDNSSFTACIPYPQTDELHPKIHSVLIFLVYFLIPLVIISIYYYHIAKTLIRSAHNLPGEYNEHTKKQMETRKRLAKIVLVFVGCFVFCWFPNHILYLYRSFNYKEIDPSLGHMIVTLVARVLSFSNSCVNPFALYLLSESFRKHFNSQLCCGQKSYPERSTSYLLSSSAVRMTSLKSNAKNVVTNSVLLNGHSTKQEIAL
Description: The procedure for transfecting the rat NMB receptor into BALB-3T3 fibroblasts is discussed in Wada, et al., Neuron, […] (1991) and Benya, et al., Mol. Pharmacol., 42:1058 (1992).
(§1) Membranes for the bombesin receptor binding assay were obtained by homogenizing BALB-373 fibroblasts, transfected with the rat NMB receptor (Polytron, setting 6, 15 sec) in ice-cold 50 mM Tris-HCl (Buffer A) and centrifuging twice at 39,000 x g (10 min), with an intermediate resuspension in fresh Buffer A. The final pellets were resuspended in 50 mM Tris-HCl, containing 0.1 mg/ml bacitracin, and 0.1% BSA (Buffer B), and held on ice for the receptor binding assay.
For assay, aliquots (0.4 ml) were incubated with 0.05 ml [^125 I-Tyr^4] bombesin (∼2200 Ci/mmol, New England Nuclear) and Buffer B, with and without 0.05 ml of unlabeled competing analogs. After a 30 min incubation (4°C), the bound [^125 I-Tyr^4] bombesin was separated from the free by rapid filtration through Whatman™ GF/B filters which had been previously soaked in 0.3% polyethyleneimine using a Brandel filtration manifold. The filters were then washed three times with 5 ml aliquots of ice-cold Buffer A. Specific binding was defined as the total [^125 I-Tyr^4] […] bound minus that bound in the presence of 1 µM unlabeled neuromedin-B.
Replacement of Gly at position A^6 in a prior art compound (i.e., litorin, leu-litorin, and [D-Phe^1, Leu^8,9] litorin) with β-Ala led unexpectedly to a great increase in their affinity for the NMB receptor. […] Modifications at position A^1, A^8, or A^9 further increases the affinity. […]

R-3327/H prostate tumor = assay: Assay on in vivo prostate tumor growth; set-up: species or system Copenhagen male rats; settings: 200 mg/inj. s.c., B.I.D., 24 days; castrated rats with tumors escaped from castration inhibition; versus vehicle; after day 17; Fig. 1
Excerpt: The androgen responsive R-3327/H prostate tumor line was implanted into 38 testes-intact, syngeneic Copenhagen male rats. The tumored animals were individually staged for castration when their tumors reached a size approximating 235 mgs. Tumors were then staged for bombesin analogue treatment when two sequential tumor measurements indicated an "escape from castration inhibition" condition, as evidenced by an increase in tumor growth rate. This transition of the prostate tumor tissue from androgen sensitive to androgen insensitive occurred without surgical perturbation of the tumor, thus providing a clinically realistic model for evaluating the anti-prostate tumor activity of the bombesin analogues.
The tumored animals were separated into two groups of 19 animals. Treatment was only initiated when tumors reached the "escape from castration inhibition" condition. Group 1 received 0.2 ml/inj. of 2.6% glycerol/water vehicle, (s.c., B.I.D.). Group 2 received a […]. of Analog #5 (s.c., B.I.D.). […] Tumors were measured using Vernier calipers and the volume was calculated using the following formula: (0.5)(length)(width)^2
Fig. 1 illustrates the tumor growth inhibitory effect of the treatments in Group 1 and Group 2. Relative tumor volume was calculated by the following formula: (Tumor Volume (measuring day))/(Tumor Volume (staging day))x 100 [formula] […]

GRP receptor = target: T2, GRP receptor (Rattus norvegicus, UniProt P52500); assay: GRP Receptor Binding Assay ([125I-Tyr4] bombesin displacement, AR42J cell membranes)
T2 construct: endogenous in cells; host or cells: Rat AR42J pancreatic acinar cells (membranes)
T2 sequence (P52500 whole entry): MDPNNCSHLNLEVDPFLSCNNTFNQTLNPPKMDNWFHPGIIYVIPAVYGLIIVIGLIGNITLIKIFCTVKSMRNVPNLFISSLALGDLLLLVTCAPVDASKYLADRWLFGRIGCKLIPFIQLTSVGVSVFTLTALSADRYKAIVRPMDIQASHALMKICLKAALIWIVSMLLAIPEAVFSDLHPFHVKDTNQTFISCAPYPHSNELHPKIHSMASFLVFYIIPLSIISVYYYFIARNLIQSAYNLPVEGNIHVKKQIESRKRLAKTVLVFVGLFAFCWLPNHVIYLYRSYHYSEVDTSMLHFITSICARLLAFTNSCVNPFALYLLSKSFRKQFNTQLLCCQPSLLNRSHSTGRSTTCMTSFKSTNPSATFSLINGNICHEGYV
Description: Rat AR42J pancreatic acinar cells were cultured in Dulbecco's modified Eagle's medium without antibiotics and supplemented with 10% (vol/vol) fetal calf serum. The incubation atmosphere consisted of 10% CO2-90% humidified air at 37°C.
as §1, with “AR42J cells” for “BALB-373 fibroblasts, transfected with the rat NMB receptor”, “sec)(Brinkman, Westbury, NY)” for “sec)”

[1] = affinity for the GRP receptor, [125I-Tyr4] bombesin, rat AR42J pancreatic acinar cell membranes, 30 min, 4°C, read-out: IC50

IC50 (GRP receptor; [1]) | SMILES | IC50 (rat NMB receptor) | Rate of tumor growth (R-3327/H prostate tumor) | increase in the affinity for the NMB receptor (rat NMB receptor; fold increase compared with litorin or [D-Phe1, Leu8,9] litorin) | IC50 (GRP receptor) | binding affinity on the NMB receptor (rat NMB receptor; result in words)
2.1 nM | CCCC[C@H](NC(=O)[C@H](CC(C)C)NC(=O)[C@H](Cc1c[nH]cn1)NC(=O)CCNC(=O)[C@@H](NC(=O)[C@H](C)NC(=O)[C@H](Cc1c[nH]c2ccccc12)NC(=O)[C@H](CCC(N)=O)NC(=O)[C@H](N)Cc1ccccc1)C(C)C)C(N)=O [Analog #5, H-D-Phe-Gln-Trp-Ala-Val-β-Ala-His-Leu-Nle-NH2] (H-[dF]QWAV[βAla]HL[Nle]-NH2) | 8.9 nM | significantly (p < 0.05) inhibited |  |  | 
 | CCCC[C@H](NC(=O)[C@H](Cc1ccccc1)NC(=O)[C@H](Cc1cnc[nH]1)NC(=O)CCNC(=O)[C@@H](NC(=O)[C@H](C)NC(=O)[C@H](Cc1c[nH]c2ccccc12)NC(=O)[C@H](CCC(N)=O)NC(=O)[C@H](N)Cc1ccc(O)cc1)C(C)C)C(N)=O [Analog #3, H-D-Tyr-Gln-Trp-Ala-Val-β-Ala-His-Phe-Nle-NH2] (H-[dY]QWAV[βAla]HF[Nle]-NH2) | 1 nM |  |  |  | 
0.2 nM | CCCC[C@H](NC(=O)[C@H](Cc1ccccc1)NC(=O)[C@H](Cc1c[nH]cn1)NC(=O)CCNC(=O)[C@@H](NC(=O)[C@H](C)NC(=O)[C@H](Cc1c[nH]c2ccccc12)NC(=O)[C@H](CCC(N)=O)NC(=O)[C@H](N)Cc1ccccc1)C(C)C)C(N)=O [Analog #1, H-D-Phe-Gln-Trp-Ala-Val-β-Ala-His-Phe-Nle-NH2] (H-[dF]QWAV[βAla]HF[Nle]-NH2) | 1 nM |  |  |  | 
 | CC(C)C[C@H](NC(=O)[C@H](CC(C)C)NC(=O)[C@H](Cc1c[nH]cn1)NC(=O)CNC(=O)[C@@H](NC(=O)[C@H](C)NC(=O)[C@H](Cc1c[nH]c2ccccc12)NC(=O)[C@H](CCC(N)=O)NC(=O)[C@H](N)Cc1ccccc1)C(C)C)C(N)=O [[D-Phe^1, Leu^8,9] litorin, H-D-Phe-Gln-Trp-Ala-Val-Gly-His-Leu-Leu-NH2, reference compound] | 480 nM |  |  | 2.8 nM | 
 | CSCC[C@H](NC(=O)[C@H](Cc1ccccc1)NC(=O)[C@H](Cc1c[nH]cn1)NC(=O)CNC(=O)[C@@H](NC(=O)[C@H](C)NC(=O)[C@H](Cc1c[nH]c2ccccc12)NC(=O)[C@H](CCC(N)=O)NC(=O)[C@@H]1CCC(=O)N1)C(C)C)C(N)=O [Litorin, p-Glu-Gln-Trp-Ala-Val-Gly-His-Phe-Met-NH2, reference compound] | 1.66 nM |  |  | 2.4 nM | 
 | CC(C)C[C@H](NC(=O)[C@H](CC(C)C)NC(=O)[C@H](Cc1c[nH]cn1)NC(=O)CNC(=O)[C@@H](NC(=O)[C@H](C)NC(=O)[C@H](Cc1c[nH]c2ccccc12)NC(=O)[C@H](CCC(N)=O)NC(=O)[C@@H]1CCC(=O)N1)C(C)C)C(N)=O [Leu-Litorin, p-Glu-Gln-Trp-Ala-Val-Gly-His-Leu-Leu-NH2, reference compound] | > 10000 nM |  |  | 23 nM | almost no binding affinity
0.1 nM | CCCC[C@H](NC(=O)[C@H](Cc1ccccc1)NC(=O)[C@H](Cc1c[nH]cn1)NC(=O)CCNC(=O)[C@@H](NC(=O)[C@H](C)NC(=O)[C@H](Cc1c[nH]c2ccccc12)NC(=O)[C@H](CCC(N)=O)NC(=O)[C@H](N)Cc1c[nH]c2ccccc12)C(C)C)C(N)=O [Analog #4, H-D-Trp-Gln-Trp-Ala-Val-β-Ala-His-Phe-Nle-NH2] (H-[dW]QWAV[βAla]HF[Nle]-NH2) | 0.04 nM |  |  |  | 

SMILES | IC50 (GRP receptor; [1]) | IC50 (rat NMB receptor) | Rate of tumor growth (R-3327/H prostate tumor) | increase in the affinity for the NMB receptor (rat NMB receptor; fold increase compared with litorin or [D-Phe1, Leu8,9] litorin) | IC50 (GRP receptor) | binding affinity on the NMB receptor (rat NMB receptor; result in words)
CC(C)C[C@H](NC(=O)[C@H](CC(C)C)NC(=O)[C@H](Cc1c[nH]cn1)NC(=O)CCNC(=O)[C@@H](NC(=O)[C@H](C)NC(=O)[C@H](Cc1c[nH]c2ccccc12)NC(=O)[C@H](CCC(N)=O)NC(=O)[C@H](N)Cc1ccccc1)C(C)C)C(N)=O [Analog #2, H-D-Phe-Gln-Trp-Ala-Val-β-Ala-His-Leu-Leu-NH2] (H-[dF]QWAV[βAla]HLL-NH2) | 1 nM | 41 nM |  | 11.7 time |  | 
